From PubChem BioAssay AID1919002 (Molecular Pharmacology Branch, DTP, NCI, 2023)
Where “and” joins values, the source holds several entries; their conditions need not be identical. Identical values can stand only once.

System: 743489-274-T-PDC complex spheroid growth
Experiment: Anticancer human tumor 743489-274-T-PDC patient-derived renal cell carcinoma cell line growth inhibition [AhR]
Conditions: for viability, T/C: stronger effect = lower value
Method in brief: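 Complex tumor spheroids co-cultured with HUVEC and human MSC stroma; AhR antagonists tested in combination with standard-of-care and investigational agents. Top concentration at or near clinical Cmax (else 10 microM), half-log dilutions; growth expressed as percent test/control.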

[1] = curve of first compound, second compound 0.1 µM
[2] = curve of first compound, second compound 0.316 µM
[3] = curve of first compound, second compound 1 µM
[4] = curve of first compound, second compound 3.16 µM
[5] = curve of first compound, second compound 10 µM
[6] = second compound 0.1 µM, first compound 0.000949 µM
[7] = second compound 0.1 µM, first compound 0.003 µM
[8] = second compound 0.1 µM, first compound 0.00949 µM
[9] = second compound 0.1 µM, first compound 0.03 µM
[10] = second compound 0.1 µM, first compound 0.0949 µM
[11] = second compound 0.1 µM, first compound 0.3 µM
[12] = second compound 0.316 µM, first compound 0.000949 µM
[13] = second compound 0.316 µM, first compound 0.003 µM
[14] = second compound 0.316 µM, first compound 0.00949 µM
[15] = second compound 0.316 µM, first compound 0.03 µM
[16] = second compound 0.316 µM, first compound 0.0949 µM
[17] = second compound 0.316 µM, first compound 0.3 µM
[18] = second compound 1 µM, first compound 0.000949 µM
[19] = second compound 1 µM, first compound 0.003 µM
[20] = second compound 1 µM, first compound 0.00949 µM
[21] = second compound 1 µM, first compound 0.03 µM
[22] = second compound 1 µM, first compound 0.0949 µM
[23] = second compound 1 µM, first compound 0.3 µM
[24] = second compound 3.16 µM, first compound 0.000949 µM
[25] = second compound 3.16 µM, first compound 0.003 µM
[26] = second compound 3.16 µM, first compound 0.00949 µM
[27] = second compound 3.16 µM, first compound 0.03 µM
[28] = second compound 3.16 µM, first compound 0.0949 µM
[29] = second compound 3.16 µM, first compound 0.3 µM
[30] = second compound 10 µM, first compound 0.000949 µM
[31] = second compound 10 µM, first compound 0.003 µM
[32] = second compound 10 µM, first compound 0.00949 µM
[33] = second compound 10 µM, first compound 0.03 µM
[34] = second compound 10 µM, first compound 0.0949 µM
[35] = second compound 10 µM, first compound 0.3 µM
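Note: spheroids exposed to agents for 7 days before readout.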
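Throughout, for viability, T/C: 100% = DMSO vehicle control wells.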

Which results are given for Nc1ncn(C2CC(O)C(CO)S2)c(=O)n1 (configuration not stated) + CC(CO)NC(=O)c1cc(-c2ccc(Cl)cc2)nn(-c2cnn(C)c2)c1=O?
IC50 [1]: > 300 nM; IC50 [2]: > 300 nM; IC50 [3]: > 300 nM; IC50 [4]: > 300 nM; IC50 [5]: > 300 nM; viability, T/C [6]: 93.7%; viability, T/C [7]: 111%; viability, T/C [8]: 102%; viability, T/C [9]: 96%; viability, T/C [10]: 96%; viability, T/C [11]: 114%; viability, T/C [12]: 103%; viability, T/C [13]: 92.9%; viability, T/C [14]: 93%; viability, T/C [15]: 88%; viability, T/C [16]: 86.9%; viability, T/C [17]: 95.1%; viability, T/C [18]: 92.4%; viability, T/C [19]: 89.3%; viability, T/C [20]: 91.7%; viability, T/C [21]: 101%; viability, T/C [22]: 87.7%; viability, T/C [23]: 101%; viability, T/C [24]: 103%; viability, T/C [25]: 95.7%; viability, T/C [26]: 84.4%; viability, T/C [27]: 88.3%; viability, T/C [28]: 86.8%; viability, T/C [29]: 92.9%; viability, T/C [30]: 95.5%; viability, T/C [31]: 95.1%; viability, T/C [32]: 91.2%; viability, T/C [33]: 95.1%; viability, T/C [34]: 93.4%; viability, T/C [35]: 86.9%

How did the IC50 [1] turn out when Nc1ncn(C2CC(O)C(CO)S2)c(=O)n1 (configuration not stated) + Cc1ccccc1N=Nc1ccc(NC(=O)c2ccnn2C)c(C)c1 was run?
The IC50 was over 300 nM.

What about the IC50 [2] of the same compound?
The IC50 was over 300 nM.

And the IC50 [3]?
Its IC50 is over 300 nM.

What about the IC50 [4] of the same compound?
The IC50 was over 300 nM.

And the IC50 [5]?
Its IC50 is over 300 nM.

What about the viability, T/C [6] of the same compound?
Its viability, T/C is 102%.

And the viability, T/C [7]?
Its viability, T/C is 87.6%.

What about the viability, T/C [8] of the same compound?
The viability, T/C was 82.9%.

And the viability, T/C [9]?
Its viability, T/C is 71.4%.

And the viability, T/C [10]?
The viability, T/C was 85.5%.

And the viability, T/C [11]?
Its viability, T/C is 75.5%.

And the viability, T/C [12]?
The viability, T/C was 85.5%.

What about the viability, T/C [13] of the same compound?
Its viability, T/C is 81.7%.

What about the viability, T/C [14] of the same compound?
Its viability, T/C is 80.4%.

And the viability, T/C [15]?
Its viability, T/C is 81.7%.

What about the viability, T/C [16] of the same compound?
The viability, T/C was 87.2%.

And the viability, T/C [17]?
Its viability, T/C is 74.7%.

What about the viability, T/C [18] of the same compound?
Its viability, T/C is 85.7%.

And the viability, T/C [19]?
The viability, T/C was 84.4%.

And the viability, T/C [20]?
The viability, T/C was 86.3%.

And the viability, T/C [21]?
The viability, T/C was 78.3%.

And the viability, T/C [22]?
The viability, T/C was 80.4%.

And the viability, T/C [23]?
The viability, T/C was 85.4%.

And the viability, T/C [24]?
The viability, T/C was 83.4%.

And the viability, T/C [25]?
Its viability, T/C is 83.2%.

And the viability, T/C [26]?
Its viability, T/C is 83.1%.

And the viability, T/C [27]?
Its viability, T/C is 87%.

What about the viability, T/C [28] of the same compound?
Its viability, T/C is 82.4%.

What about the viability, T/C [29] of the same compound?
Its viability, T/C is 79.3%.

What about the viability, T/C [30] of the same compound?
The viability, T/C was 76%.

And the viability, T/C [31]?
Its viability, T/C is 69.9%.

And the viability, T/C [32]?
The viability, T/C was 92.1%.

What about the viability, T/C [33] of the same compound?
Its viability, T/C is 81.2%.

What about the viability, T/C [34] of the same compound?
Its viability, T/C is 83.3%.

And the viability, T/C [35]?
Its viability, T/C is 76.5%.

With Nc1ccn(C2OC(CO)C(O)C2(F)F)c(=O)n1 (configuration not stated) as the compound, how does the viability, T/C (compound 0.0316 µM) read?
Its viability, T/C is 92.4% and 67.2% and 87.8%.

And the viability, T/C (compound 0.1 µM)?
The viability, T/C was 73.3% and 58.7% and 72.8%.

What about the viability, T/C (compound 0.316 µM) of the same compound?
The viability, T/C was 69.8% and 60.6% and 73.5%.

And the viability, T/C (compound 1 µM)?
The viability, T/C was 63% and 53.5% and 70.8%.

And the viability, T/C (compound 3.16 µM)?
The viability, T/C was 71.4% and 61.4% and 66.6%.

What about the viability, T/C (compound 10 µM) of the same compound?
The viability, T/C was 73.7% and 62.2% and 66.3%.

And the IC50 (curve of compound)?
Its IC50 is over 10000 nM.
